Experimental data reported in BindingDB's records for PubMed 20068177 (Wyeth Research).

Target: Phosphatidylinositol 3-kinase regulatory subunit alpha/4,5-bisphosphate 3-kinase catalytic subunit alpha isoform (Homo sapiens, UniProt P27986+P42336)
Assay: Inhibition of recombinant human full-length N-terminal His6-tagged p110alpha/full length untagged human p85alpha expressed in baculovirus infected Sf21 insect cells using PIP2 as substrate measured after 15 to 30 mins by fluorescence polarization assay

Phosphatidylinositol 3-kinase regulatory subunit alpha/4,5-bisphosphate 3-kinase catalytic subunit alpha isoform, sequence (P27986 whole entry, canonical isoform): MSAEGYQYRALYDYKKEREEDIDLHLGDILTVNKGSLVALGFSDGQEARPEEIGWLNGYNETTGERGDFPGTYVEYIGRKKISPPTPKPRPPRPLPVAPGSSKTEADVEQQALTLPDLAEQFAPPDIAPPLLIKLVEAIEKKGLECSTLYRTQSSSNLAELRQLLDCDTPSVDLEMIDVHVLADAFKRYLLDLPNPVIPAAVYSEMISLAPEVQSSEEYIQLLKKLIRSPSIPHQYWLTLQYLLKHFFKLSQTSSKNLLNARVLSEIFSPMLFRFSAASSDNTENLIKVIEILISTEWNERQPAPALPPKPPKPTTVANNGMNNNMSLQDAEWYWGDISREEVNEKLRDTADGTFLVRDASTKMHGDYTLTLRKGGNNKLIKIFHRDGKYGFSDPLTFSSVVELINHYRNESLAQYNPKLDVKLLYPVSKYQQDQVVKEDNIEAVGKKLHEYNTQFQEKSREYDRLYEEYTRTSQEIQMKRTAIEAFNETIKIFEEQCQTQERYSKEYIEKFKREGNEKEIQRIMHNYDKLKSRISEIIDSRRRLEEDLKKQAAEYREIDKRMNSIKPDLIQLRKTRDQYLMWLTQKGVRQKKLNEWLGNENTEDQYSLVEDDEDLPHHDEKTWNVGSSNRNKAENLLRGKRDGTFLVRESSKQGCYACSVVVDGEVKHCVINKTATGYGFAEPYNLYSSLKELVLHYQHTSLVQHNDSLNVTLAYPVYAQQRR
Phosphatidylinositol 3-kinase regulatory subunit alpha/4,5-bisphosphate 3-kinase catalytic subunit alpha isoform, sequence (P42336 whole entry, canonical isoform): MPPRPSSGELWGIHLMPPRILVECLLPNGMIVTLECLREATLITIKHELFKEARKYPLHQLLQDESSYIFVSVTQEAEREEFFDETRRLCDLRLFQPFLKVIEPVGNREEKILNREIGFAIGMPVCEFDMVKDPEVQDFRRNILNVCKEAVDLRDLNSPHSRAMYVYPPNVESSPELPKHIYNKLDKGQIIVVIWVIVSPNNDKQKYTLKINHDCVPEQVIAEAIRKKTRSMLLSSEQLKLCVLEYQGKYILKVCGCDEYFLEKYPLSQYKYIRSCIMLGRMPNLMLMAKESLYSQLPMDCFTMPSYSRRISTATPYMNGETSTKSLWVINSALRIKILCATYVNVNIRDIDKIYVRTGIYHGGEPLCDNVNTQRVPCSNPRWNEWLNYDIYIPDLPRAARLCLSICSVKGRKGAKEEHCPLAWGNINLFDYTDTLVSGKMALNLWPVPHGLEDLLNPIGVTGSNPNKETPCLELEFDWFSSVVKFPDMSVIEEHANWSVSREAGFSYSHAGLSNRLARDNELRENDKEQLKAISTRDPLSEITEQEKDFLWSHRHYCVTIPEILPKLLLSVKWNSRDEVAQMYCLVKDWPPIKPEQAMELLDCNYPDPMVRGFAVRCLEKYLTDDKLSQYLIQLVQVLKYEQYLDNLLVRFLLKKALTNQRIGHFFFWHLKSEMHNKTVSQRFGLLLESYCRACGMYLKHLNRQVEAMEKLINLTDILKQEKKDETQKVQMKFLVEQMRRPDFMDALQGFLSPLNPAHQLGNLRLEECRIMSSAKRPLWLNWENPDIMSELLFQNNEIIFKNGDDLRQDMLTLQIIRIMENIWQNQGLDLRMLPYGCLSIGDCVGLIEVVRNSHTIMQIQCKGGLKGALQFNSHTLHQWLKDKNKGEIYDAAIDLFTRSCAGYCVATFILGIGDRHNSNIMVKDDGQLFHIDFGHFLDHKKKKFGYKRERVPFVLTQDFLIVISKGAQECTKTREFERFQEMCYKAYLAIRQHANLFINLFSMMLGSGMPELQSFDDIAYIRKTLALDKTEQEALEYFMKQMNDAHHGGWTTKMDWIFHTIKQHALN

IC50: 1180 nM
SMILES: CNC(=O)Nc1ccc(-c2nc(N3CC4CCC(C3)O4)c3cnn(C4CCC5(CC4)OCCO5)c3n2)cc1 [1-(4-(4-(8-oxa-3-azabicyclo[3.2.1]octan-3-yl)-1-(1,4-dioxaspiro[4.5]decan-8-yl)-1H-pyrazolo[3,4-d]pyrimidin-6-yl)phenyl)-3-methylurea]
